Earlier results, collected in US20180030541A1, “METHOD FOR PREDICTING SENSITIVITY TO VASCULAR ENDOTHELIAL GROWTH FACTOR RECEPTOR INHIBITOR” (CBSBIOSCIENCE INC., priority 2014, published 2018).

System: hepatocellular carcinoma
Settings: drug approved for treating hepatocellular carcinoma; cancer patients

CNC(=O)c1cc(Oc2ccc(NC(=O)Nc3ccc(Cl)c(C(F)(F)F)c3)cc2)ccn1 [Nexavar, Sorafenib]
side effects: very high
treatment rate: 2-3%
